One data set in a line: acid dissociation constant pKa by alkali titration method. The format is physicochemical. The note with it: 25° C., mixed solvent tetrahydrofuran 60 ml/water 40 ml. The procedure: The cellulose acylate film of the present invention contains at least two chelating agents. One of the two chelating agents is a chelating agent having a […] pKa and, in the present invention, such is a chelating agent (chelating agent A) having at least one functional group whose acid dissociation constant pKa measured at 25° C. in a mixed solvent having a mixing ratio of tetrahydrofuran 60 ml/water 40 ml is 6 or less.
The acid dissociation constant pKa can be measured in accordance with an alkali titration method described in Experimental Chemistry Course, 2nd Ed., pp. 215-217, published by MARUZEN PUBLISHING CO., LTD.
At least one residual chelating agent of the at least two chelating agents which the cellulose acylate film of the present invention contains, is a chelating agent B having at least one functional group of a conjugate acid, whose pKa measured at 25° C. in a mixed solvent having a mixing ratio of tetrahydrofuran 60 ml/water 40 ml, is 7 or more.
As to `CCCCCCCCCCCCCCCC(=O)OC[C@H](O)[C@H]1OC(=O)C(O)=C1O` [L-ascorbic acid palmitic acid ester], the “Chelating agent A pKa of acidic group” value worked out at 6.0.

Turning to `O=P(O)(O)CN(CCN(CP(=O)(O)O)CP(=O)(O)O)CP(=O)(O)O` [PH-540, Ethylenediamine N,N,N′,N′-tetrakis(methylenephosphonic acid)], the “Chelating agent A pKa of acidic group” value is listed as “Less than 3”.

On to `O=C(O)CN(CCN(CC(=O)O)CC(=O)O)CCN(CC(=O)O)CC(=O)O` [diethylenetriaminepentaacetic acid], for which the “Chelating agent A pKa of acidic group” value was found to be 3.6.

Still in this data set, the particulars now being: pKa of conjugate acid; 25° C., mixed solvent tetrahydrofuran 60 ml/water 40 ml; read-out: Chelating agent B pKa of basic group.
Broadly, the pKa is the pH at which an ionisable group is half protonated. In the case of `ONc1nc(NC2CCCCC2)nc(NC2CCCCC2)n1` [Chelating agent D], the pKa was 14.

For `CC(O)CN(CCN(CC(C)O)CC(C)O)CCN(CC(C)O)CC(C)O` (stereo not drawn) [N,N,N′,N″,N″-pentakis(2-hydroxypropyl)diethylenetriamine], the pKa worked out at 8.4.

Regarding `NCCNCCNCCN` [triethylenetetramine], the pKa amounted to 8.9.

Source of the values: patent US9644083B2, “Cellulose acylate film, polarizing plate protective film, polarizing plate and liquid crystal display using the same” (FUJIFILM Corporation, priority 2014, dated 2017).
